# Patent publication US9302999B2, “Substituted triazoles as herbicides” (E. I. DU PONT DE NEMOURS AND COMPANY, priority 2012, dated 2016)
# Experiments:
# Format in all cases: in vivo
# [1] = system: barnyardgrass (Echinochloa crus-galli); experiment: Test A pre-/postemergence: barnyardgrass
# Outline: (§1)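 Injury is scored visually on a scale where 0 means no effect and 100 complete control, comparing treated with untreated plants after approximately ten greenhouse days. Both preemergence and postemergence applications are made at the same time.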
# [2] = system: foxtail, giant (giant foxtail, Setaria faberii); experiment: Test A pre-/postemergence: foxtail, giant
# Outline: as §1
# [3] = system: morningglory (Ipomoea spp.); experiment: Test A pre-/postemergence: morningglory
# Outline: as §1
# [4] = system: pigweed (Amaranthus retroflexus); experiment: Test A pre-/postemergence: pigweed
# Outline: as §1
# [5] = system: wheat (Triticum aestivum); experiment: Test A pre-/postemergence: wheat
# Outline: as §1
# [6] = system: winter wheat (Triticum aestivum); experiment: Test C pre-/postemergence: winter wheat
# Outline: (§2)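 Visual injury scored 0–100 (100 = complete control) against untreated controls after 13–15 greenhouse days. Surfactant-containing solvent formulations applied either to soil after sowing (loam/sand) or over 1- to 4-leaf plants, 2–18 cm tall.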
# [7] = system: corn (Zea mays); experiment: Test C pre-/postemergence: corn
# Outline: as §2
# [8] = system: johnsongrass (Sorghum halepense); experiment: Test C pre-/postemergence: johnsongrass
# Outline: as §2
# [9] = system: morningglory (Ipomoea coccinea); experiment: Test C pre-/postemergence: morningglory
# Outline: as §2
# [10] = system: nutsedge, yellow (yellow nutsedge, Cyperus esculentus); experiment: Test C pre-/postemergence: nutsedge, yellow
# Outline: as §2
# [11] = system: velvetleaf (Abutilon theophrasti); experiment: Test C pre-/postemergence: velvetleaf
# Outline: as §2
# [12] = system: chickweed (common chickweed, Stellaria media); experiment: Test C postemergence: chickweed
# Outline: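 Plants at the 1- to 4-leaf stage (2 to 18 cm tall), grown in pots of peat moss/vermiculite planting medium, received postemergence applications of the formulated test chemicals. After 13 to 15 days in a greenhouse, injury was scored visually versus controls from 0 (no effect) to 100 (complete control).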
# [13] = Postemergence, 125 g ai/ha, 0 to 100 scale, 0 is no effect, 100 is complete control
# [14] = Postemergence, 500 g ai/ha, 0 to 100 scale, 0 is no effect, 100 is complete control
# [15] = Preemergence, 125 g ai/ha, 0 to 100 scale where 0 is no effect and 100 is complete control
# [16] = Preemergence, 500 g ai/ha, 0 to 100 scale (0 no effect, 100 complete control)
# [17] = Postemergence, 31 g ai/ha, scale 0 to 100 (0 no effect, 100 complete control)
# [18] = Postemergence, 62 g ai/ha, scale 0 to 100 (0 no effect, 100 complete control)
# [19] = Postemergence, 125 g ai/ha, scale 0 to 100, 0 no effect, 100 complete control
# [20] = Postemergence, 250 g ai/ha, scale 0 to 100 (0 no effect, 100 complete control)
# [21] = Preemergence, 31 g ai/ha, scale 0 (no effect) to 100 (complete control)
# [22] = Preemergence, 62 g ai/ha, scale of 0 to 100, 0 is no effect, 100 is complete control
# [23] = Preemergence, 125 g ai/ha, scale 0 to 100, 0 no effect, 100 complete control
# [24] = Preemergence, 250 g ai/ha, scale 0 to 100, 0 no effect, 100 complete control
smiles,measurement,setting,value
CCOc1nn(-c2ccc(F)cc2)nc1Cc1ccnc(C(F)F)c1 [Compound 195],"Plant response rating, Barnyardgrass",[1]; [13],90
same,Barnyardgrass plant response rating,[1]; [14],90
same,"Plant response rating, Barnyardgrass",[1]; [15],90
same,"Plant response rating, Barnyardgrass",[1]; [16],100
same,"Plant response rating, Foxtail, Giant",[2]; [13],90
same,"Foxtail, Giant plant response rating",[2]; [14],90
same,"Plant response rating, Foxtail, Giant",[2]; [15],100
same,"Plant response rating, Foxtail, Giant",[2]; [16],100
same,"Plant response rating, Morningglory",[3]; [13],80
same,Morningglory plant response rating,[3]; [14],100
same,"Plant response rating, Morningglory",[3]; [15],50
same,"Plant response rating, Morningglory",[3]; [16],60
same,"Plant response rating, Pigweed",[4]; [13],100
same,Pigweed plant response rating,[4]; [14],100
same,"Plant response rating, Pigweed",[4]; [15],100
same,"Plant response rating, Pigweed",[4]; [16],100
same,"Plant response rating, Wheat",[5]; [13],30
same,Wheat plant response rating,[5]; [14],30
same,"Plant response rating, Wheat",[5]; [15],20
same,"Plant response rating, Wheat",[5]; [16],50
same,"Plant response rating, Wheat",[6]; [17],10
same,"Plant response rating, Wheat",[6]; [18],20
same,"Plant response rating, Wheat",[6]; [19],25
same,"Plant response rating, Wheat",[6]; [20],30
same,"Plant response rating, Wheat",[6]; [21],0
same,"Plant response rating, Wheat",[6]; [22],5
same,"Plant response rating, Wheat",[6]; [23],5
same,"Plant response rating, Wheat",[6]; [24],30
same,"Plant response rating, Corn",[7]; [17],60
same,"Plant response rating, Corn",[7]; [18],75
same,"Plant response rating, Corn","[7]; Postemergence, 250 g ai/ha, scale 0 to 100",80
same,"Plant response rating, Corn",[7]; [21],0
same,"Plant response rating, Corn",[7]; [22],5
same,"Plant response rating, Corn",[7]; [23],15
same,"Plant response rating, Corn",[7]; [24],35
same,"Plant response rating, Johnsongrass",[8]; [17],55
same,"Plant response rating, Johnsongrass",[8]; [18],80
same,"Plant response rating, Johnsongrass",[8]; [19],95
same,"Plant response rating, Johnsongrass",[8]; [20],95
same,"Plant response rating, Johnsongrass",[8]; [23],98
same,"Plant response rating, Johnsongrass",[8]; [24],100
same,"Plant response rating, Morningglory",[9]; [17],65
same,"Plant response rating, Morningglory",[9]; [18],90
same,"Plant response rating, Morningglory",[9]; [19],90
same,"Plant response rating, Morningglory",[9]; [20],95
same,"Plant response rating, Morningglory",[9]; [21],30
same,"Plant response rating, Morningglory",[9]; [22],50
same,"Plant response rating, Morningglory",[9]; [23],75
same,"Plant response rating, Morningglory",[9]; [24],90
same,"Plant response rating, Nutsedge, Yellow",[10]; [17],10
same,"Plant response rating, Nutsedge, Yellow",[10]; [18],20
same,"Plant response rating, Nutsedge, Yellow",[10]; [19],25
same,"Plant response rating, Nutsedge, Yellow",[10]; [20],25
same,"Plant response rating, Nutsedge, Yellow",[10]; [21],0
same,"Plant response rating, Nutsedge, Yellow",[10]; [22],0
same,"Plant response rating, Nutsedge, Yellow",[10]; [23],5
same,"Plant response rating, Nutsedge, Yellow",[10]; [24],80
same,"Plant response rating, Velvetleaf",[11]; [17],45
same,"Plant response rating, Velvetleaf",[11]; [18],50
same,"Plant response rating, Velvetleaf",[11]; [19],60
same,"Plant response rating, Velvetleaf",[11]; [20],65
same,"Plant response rating, Velvetleaf",[11]; [21],10
same,"Plant response rating, Velvetleaf",[11]; [22],25
same,"Plant response rating, Velvetleaf",[11]; [23],55
same,"Plant response rating, Velvetleaf",[11]; [24],90
same,"Plant response rating, Chickweed","[12]; 31 g ai/ha, scale 0 to 100 (0 no effect, 100 complete control)",95
same,"Plant response rating, Chickweed","[12]; 62 g ai/ha, scale 0 to 100 (0 no effect, 100 complete control)",95
same,"Plant response rating, Chickweed","[12]; 125 g ai/ha, scale 0 to 100, 0 no effect, 100 complete control",98
same,"Plant response rating, Chickweed","[12]; 250 g ai/ha, scale 0 to 100",98
